Assay results taken from US20250228864A1, “THERAPIES FOR THE TREATMENT OF INFLAMMATORY BOWEL DISEASE” (Gilead Sciences, Inc., priority 2023, published 2025).

Target: T1, α4β7 receptors on β7+CD4+CD45RO+ memory T cells (Homo sapiens, UniProt P13612+P26010)
T1 construct: endogenous in cells
T1 sequence (P13612 34-1032): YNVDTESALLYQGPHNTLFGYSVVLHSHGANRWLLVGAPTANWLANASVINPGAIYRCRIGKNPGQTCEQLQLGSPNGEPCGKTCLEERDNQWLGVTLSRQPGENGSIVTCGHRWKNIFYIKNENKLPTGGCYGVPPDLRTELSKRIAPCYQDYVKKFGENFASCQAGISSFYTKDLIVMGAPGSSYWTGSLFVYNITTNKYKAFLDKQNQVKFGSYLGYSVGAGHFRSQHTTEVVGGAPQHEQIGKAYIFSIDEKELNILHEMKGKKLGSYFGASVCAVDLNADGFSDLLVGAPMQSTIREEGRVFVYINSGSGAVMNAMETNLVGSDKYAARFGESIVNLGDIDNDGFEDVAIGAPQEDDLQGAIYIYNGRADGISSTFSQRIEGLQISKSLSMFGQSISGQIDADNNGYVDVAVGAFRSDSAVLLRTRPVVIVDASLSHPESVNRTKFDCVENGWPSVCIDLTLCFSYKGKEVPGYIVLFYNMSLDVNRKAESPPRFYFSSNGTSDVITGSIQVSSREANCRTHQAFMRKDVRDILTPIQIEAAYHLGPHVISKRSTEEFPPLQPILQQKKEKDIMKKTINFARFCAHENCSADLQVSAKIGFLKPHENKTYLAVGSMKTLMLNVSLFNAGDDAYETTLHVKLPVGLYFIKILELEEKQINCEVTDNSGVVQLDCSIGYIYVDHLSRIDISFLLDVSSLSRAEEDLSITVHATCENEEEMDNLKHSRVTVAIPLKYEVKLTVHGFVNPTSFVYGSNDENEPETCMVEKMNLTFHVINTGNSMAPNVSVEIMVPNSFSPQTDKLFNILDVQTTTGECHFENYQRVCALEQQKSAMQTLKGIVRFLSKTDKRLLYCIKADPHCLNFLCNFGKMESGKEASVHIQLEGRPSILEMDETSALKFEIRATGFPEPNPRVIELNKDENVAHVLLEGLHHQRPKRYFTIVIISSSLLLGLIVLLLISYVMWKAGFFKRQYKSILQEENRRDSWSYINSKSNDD
T1 sequence (P26010 20-798): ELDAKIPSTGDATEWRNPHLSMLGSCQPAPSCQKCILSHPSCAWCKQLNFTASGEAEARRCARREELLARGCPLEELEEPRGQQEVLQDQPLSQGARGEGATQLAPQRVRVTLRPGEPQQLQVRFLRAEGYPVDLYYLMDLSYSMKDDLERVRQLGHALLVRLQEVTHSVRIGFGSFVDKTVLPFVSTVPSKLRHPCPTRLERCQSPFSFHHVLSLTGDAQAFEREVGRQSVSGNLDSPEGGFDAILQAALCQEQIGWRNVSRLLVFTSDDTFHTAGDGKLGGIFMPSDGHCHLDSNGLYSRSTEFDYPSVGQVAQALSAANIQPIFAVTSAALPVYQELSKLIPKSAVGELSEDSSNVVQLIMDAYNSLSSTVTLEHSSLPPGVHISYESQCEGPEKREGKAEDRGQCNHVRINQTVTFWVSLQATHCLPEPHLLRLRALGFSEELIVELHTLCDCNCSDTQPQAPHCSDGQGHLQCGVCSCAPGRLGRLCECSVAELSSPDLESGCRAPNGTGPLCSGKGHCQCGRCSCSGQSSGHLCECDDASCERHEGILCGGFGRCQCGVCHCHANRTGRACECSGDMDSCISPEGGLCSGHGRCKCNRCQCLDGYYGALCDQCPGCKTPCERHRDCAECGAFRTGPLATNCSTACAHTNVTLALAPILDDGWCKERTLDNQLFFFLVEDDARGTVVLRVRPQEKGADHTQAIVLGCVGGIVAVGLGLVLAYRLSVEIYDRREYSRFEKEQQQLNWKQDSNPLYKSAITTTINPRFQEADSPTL
Test: Whole blood α4β7 receptor occupancy (RO) assay by flow cytometry in SAD and MAD cohorts
Type: in vivo
Conditions: for time post last dose (Day 14) until which α4β7 % RO≥95% was sustained: 100% of participants
Method: Formula (III) is a prodrug of Formula (I) and undergoes a rapid conversion to its active metabolite (Formula (I)) when administered to a human. The pharmacodynamics (PD) of the active metabolite of Formula (III) were analyzed in healthy volunteers by measuring the metabolites receptor occupancy (RO) on α4β7 receptors in whole blood to inform Formula (III) dose selection and schedule.
A whole blood RO assay was developed and fit-for-purpose-validated that measures free α4β7 receptors on […] memory T cells in fresh whole blood by flow cytometry. The β7+CD4+CD45RO+ memory T-cells were identified using a staining panel comprised of fluorescently labelled anti-CD3, -CD4, -CD8, -CD45RO, and -β7 antibodies (Biolegend) (Table 14) as soon as possible after blood collection. Biotinylated human MAdCAM-1 protein, the natural ligand for α4β7, is mixed with streptavidin PE dextramer (Immudex) (MDX) and added to the whole blood in the presence of the divalent cation manganese (as MnCl2). MDX and the metabolite compete for binding to the α4β7 integrin receptor. Specimen data are acquired immediately on a BD LSRFortessa X-20 Cell Analyzer flow cytometer using a α4β7 RO cell acquisition template and application settings. The gating strategy is as follows: lymphocytes are gated based on size (FSC-A) and complexity (SSC-A). Doublets are removed using FSC-A/FSC-H. CD3+ lymphocytes are further differentiated into CD4+ and CD8+ T cells. CD4+CD45RO+ positive T cells are gated on β7 integrin and MDX positivity. The fluorescent intensities of PE-MDX β7+CD4+CD45RO+ memory T cells in pre-dose and post-dose whole blood are used to calculate the % RO post-dose. The lower level of quantification (LLOQ) of the assay was estimated to be ˜40% for a single measurement; similarly, the a4b7 RO assay was fit-for purpose validated to precisely quantify % RO up to 95% RO. Actual measured values <40% RO and ≥95% RO are shown but represent best estimates.
Whole blood was collected pre- and post-Formula (III) or placebo to match (PTM) administration and percent α4β7 RO was calculated for all postbaseline time points in the SAD and MAD cohorts of the study. α4β7% RO was evaluated in all participants in Part A (SAD, Formula (III) 20 mg, 60 mg, 200 mg, 500 mg, and 1000 mg administered in liquid filled capsules under fasting conditions), and in Part B (MAD, Formula (III) 20 mg, 80 mg, 200 mg, 500 mg in liquid filled capsules under non-fasting conditions and Formula (III) 200 mg in tablet formulation under fasting conditions). In total, 2,506 samples collected at 35 different time-points from 109 unique participants were analyzed for α4β7% RO.

**Q.** Which results are given for `CCOC(=O)[C@H](Cc1ccc(-n2c(=O)c3ccncc3n(C)c2=O)c2ncccc12)NC(=O)c1c(C)cc(N2CCOC[C@@H]2C(F)(F)F)cc1F` (atropisomer, axis not shown) [Formula (III)]?
**A.** time until which full target engagement could possibly be achieved (200 mg capsule nonfasting, after last dose): approximately 48 h; α4β7 % RO 72 h postdose, average (200 mg capsule nonfasting, after last dose Day 14): 90.1%; α4β7 % RO at 24 h post last dose on Day 14 (200 mg capsule nonfasting, all participants): ≥ 95%; time post last dose (Day 14) until which α4β7 % RO≥95% was sustained (200 mg tablet fasting): 72 h; time post last dose (Day 14) until which α4β7 % RO≥95% was sustained (500 mg capsule nonfasting): 96 h; α4β7 % RO (MAD 20 mg QD capsule nonfasting, Day 1, 3 h postdose): 99.8%; α4β7 % RO (MAD 20 mg QD capsule nonfasting, Day 1, 24 h postdose): 37.8%; α4β7 % RO (MAD 20 mg QD capsule nonfasting, Day 14, 24 h postdose): 69.3%; α4β7 % RO (MAD 20 mg QD capsule nonfasting, Day 14, predose): 70.8%; change of α4β7 % RO post multiple once daily doses (MAD 20 mg, Day 1 to Day 14): accumulation; α4β7 % RO (MAD 80 mg QD capsule nonfasting, Day 1, 3 h postdose): 99.9%; α4β7 % RO (MAD 80 mg QD capsule nonfasting, Day 1, 24 h postdose): 98.1%; α4β7 % RO (MAD 80 mg QD capsule nonfasting, Day 14, 24 h postdose): 99.4%; α4β7 % RO (MAD 80 mg QD capsule nonfasting, Day 14, predose): 99.3%; target engagement of α4β7 at 24 h on Day 1 (MAD 80 mg nonfasting): achieved full target engagement; α4β7 % RO (MAD 200 mg QD capsule nonfasting, Day 1, 24 h postdose): 99.8%; α4β7 % RO (MAD 200 mg QD capsule nonfasting, Day 14, 24 h postdose): 99.8%; α4β7 % RO (MAD 200 mg QD capsule nonfasting, Day 14, predose): 99.9%; α4β7 % RO (MAD 200 mg QD tablet fasting, Day 1, 3 h postdose): 99.9%; α4β7 % RO (MAD 200 mg QD tablet fasting, Day 1, 24 h postdose): 99.8%; α4β7 % RO (MAD 200 mg QD tablet fasting, Day 14, 24 h postdose): 99.9%; α4β7 % RO (MAD 200 mg QD tablet fasting, Day 14, predose): 100%; α4β7 % RO (MAD 500 mg QD capsule nonfasting, Day 1, 3 h postdose): 99.9%; α4β7 % RO (MAD 500 mg QD capsule nonfasting, Day 1, 24 h postdose): 99.9%; α4β7 % RO (MAD 500 mg QD capsule nonfasting, Day 14, 24 h postdose): 99.9%; α4β7 % RO (MAD 500 mg QD capsule nonfasting, Day 14, predose): 99.9%; α4β7 % RO 24 h post the last once daily dose on Day 14 (MAD all doses ≥80 mg, in 100% of participants): ≥ 95%; α4β7 % RO (SAD 20 mg liquid-filled capsule fasting, Day 1, 3 h postdose): 100%; α4β7 % RO (SAD 20 mg liquid-filled capsule fasting, Day 1, 24 h postdose): 35.9%; α4β7 % RO (SAD 60 mg liquid-filled capsule fasting, Day 1, 3 h postdose): 100%; α4β7 % RO (SAD 60 mg liquid-filled capsule fasting, Day 1, 24 h postdose): 63.4%; α4β7 % RO (SAD 200 mg liquid-filled capsule fasting, Day 1, 3 h postdose): 99.9%; α4β7 % RO (SAD 200 mg liquid-filled capsule fasting, Day 1, 24 h postdose): 99.7%; α4β7 % RO (SAD 500 mg liquid-filled capsule fasting, Day 1, 3 h postdose): 99.9%; α4β7 % RO (SAD 500 mg liquid-filled capsule fasting, Day 1, 24 h postdose): 99.8%; α4β7 % RO (SAD 1000 mg liquid-filled capsule fasting, Day 1, 3 h postdose): 99.6%; α4β7 % RO (SAD 1000 mg liquid-filled capsule fasting, Day 1, 24 h postdose): 99.8%; α4β7 % RO (full target engagement) (SAD fasting, 3 h postdose, all doses tested): ≥ 95%; subjects with full target engagement (% RO≥95) sustained 24 h postdose (SAD fasting, doses ≥200 mg): 100%
